These are literature values, as cited in US20100137247A1, “Anti-inflammatory compositions and methods” (Searete LLC, a limited liability corporation of the State …, priority 2008, published 2010).

For series [1] the following is noted: 400 mg infused over one hour, single agent.
The test system of series [2] is proteasomal activity in cultured breast cancer cells. The note with it: disulfiram bound to copper.
A further series relates to lethal septic shock. As to conditions: mice.

Regarding `CCN(CC)CCCC(C)Nc1ccnc2cc(Cl)ccc12.O=P(O)(O)O.O=P(O)(O)O` (stereo not shown) [Chloroquine phosphate, 7-chloro-4-[[4-(diethylamino)-1-methylbutyl]amino]quinoline phosphate (1:2)], the tolerability of infusion entry in series [1] is reported as “without complication”.
As for `CCN(CC)CCCC(C)Nc1ccnc2cc(Cl)ccc12` (stereo not shown) [Chloroquine], in the series with Src family kinase, the “inhibition of CpG-induced Src family kinase activation or its dependent cellular responses” value is on record as “does not inhibit”.
With `CCN(CC)C(=S)SSC(=S)N(CC)CC` [Disulfiram, 1-(diethylthiocarbamoyldisulfanyl)-N,N-diethyl-methanethioamide], the proteasomal activity result in series [2] is reported as “inhibits proteasomal activity”.
As for `Cl.Cl.Nc1ccccc1Oc1ccc2c(N)nsc2c1` [Example M62812, 3-amino-6-(2-aminophenoxy)-1,2-benzisothiazole dihydrochloride], the “prevention of lethal septic shock” value in the series on lethal septic shock is recorded as “prevents lethal septic shock”.
